Measured values published in US10590115B2, “Tetrahydroquinazoline derivatives useful as anticancer agents” (PFIZER INC., priority 2018, dated 2020).

Legend:
[1] = target: T1, KRAS G12C in H358 cells (Homo sapiens, UniProt P01116, G12C); experiment: H358 Cell Activity Assay (Raf-1 RBD capture of active Ras, MSD); assay type: cell-based; conditions: 6 hours treatment
T1 construct: endogenous in cells; host or cells: H358
Experimental: (§1) Compounds presented in the present invention lead to the accumulation of the GDP bound Ras upon treatment of human cancer cell line.
(§2) The accumulation of the GDP-bound KRAS G12C in cellular environment was measured based on the principle that KRAS G12C only binds to its downstream kinase; Raf-1 (MAP Kinase Kinase Kinase), when in its active-GTP bound state. In this state, Ras binded to a domain of Raf-1 kinase referred to as the Ras Binding Domain (RBD).
(§3) H358 cells were grown in RPMI 1640 medium (Gibco 11875) supplemented with 10% fetal bovine serum and 1% penicillin/streptomycin. Cells were seeded in 96-well tissue culture plates at a density of 40,000 cells/well and allowed to attach for 16-24 hours. Test compounds were prepared as a 10 mM stock in DMSO and serially diluted in 100% DMSO using a 3-fold dilution scheme. An intermediate 5× concentrated plate in complete growth medium was made and 25 μl/well was added to the 100 μl of cells for a final concentration of 0.1% DMSO. Each concentration of exemplary compound was tested in duplicate. The negative control wells were cells with control inhibitor at 10 μM, and the positive control wells were cells without drugs, DMSO only. Plates were incubated for 6 hours at 37° C., 5% CO2. Following treatment, cells were washed 3× with ice-cold PBS and 100 μl/well ice-cold 1× Assay/Lysis. Buffer with protease inhibitors was added (25 mM HEPES, pH 7.5, 150 mM NaCl, 1% NP-40, 10 mM MgCl2, 1 mM EDTA, 2% Glycerol). Following lysis samples were frozen at −80° C.
(§4) Raf-1 RBD (LJIC-1988A1) was diluted to 100 ng/well in PBS and 5 μl/well was spot coated onto MSD high bind SECTOR plates (L15XB). Plates were incubated at room temperature for 1 hour on an orbital shaker. Plates were washed with PBS/0.05% Tween-20 and 50 μl/well of thawed lysate samples were added, followed by 50 μl of 1% MSD Blocker A in PBS/0.05% Tween-20 (R93BA). Plates were incubated for 1 hour on an orbital shaker and washed with PBS/0.05% Tween-20. 25 μl/well of Anti-pan-Ras Antibody (Cell Biolabs 244003) diluted 1:3000 was added in 1% MSD Blocker A solution and plates were incubated for 1 hour on an orbital shaker and washed with PBS/0.05% Tween-20. SULFO-TAG goat anti-mouse secondary antibody (MSD R32AC) was diluted 1:500 in MSD Blocker A solution and added at 25 μL/well. Plates were incubated for 1 hour on an orbital shaker and washed with PBS/0.05% Tween-20. 150 μl/well of Read Buffer T (MSD R92TC) diluted 1:3 in H2O was added and plates were read on a Meso Scale Discovery Sector Imager S600.
(§5) KRAS signal was normalized to maximum inhibition and DMSO control values, and IC50 values were generated using a 4 parameter fit of the dose response curve. The decrease in IC50 reflects that the exemplary compound lead to a higher level of accumulation of GDP-bound KRAS G12C than another exemplary compounds at specific timepoint of treatment of cancer cell line.

[2] = target: T2, GDP-loaded kRas (1-169) G12C, C51S, C80L, C118S (Homo sapiens, UniProt P01116, C118S/C51S/C80L/G12C); experiment: Mass Spectrometry Reactivity Assay (MSRA), covalent adduct with kRas G12C; assay type: binding; conditions: 0.5 h at room temperature; 5 μM KRas protein; typical final concentration of the compounds 10 μM
T2 construct: GDP-loaded kRas (1-169) G12C, C51S, C80L, C118S
Experimental: Mass Spectrometry Reactivity Assay (MSRA)
Compounds presented in the present invention covalently bind to kRas G12C using MSRA to detect a covalent adduct of the exemplary compound and kRas G12C. GDP-loaded kRas (1-169) G12C, C51S, C80L, C118S were diluted in the protein assay buffer 25 mM Hepes pH7.5, 200 mM NaCl, 5% glycerol to concentration of 5 μM and 20 μl of protein was transferred into 96-well plate. […] See K-Ras(G12C) inhibitors allosterically control GTP affinity and effector interactions; Ostrem J M, Peters U, Sos M L, Wells J A, Shokat K M; Nature. 2013, Nov. 28; 503(7477):548-51.
Exemplary compounds dissolved in DMSO were diluted 100-fold into solution containing 20 μl of 5 μM KRas protein in the 96-well plate to initiate the reaction. Mosquito (TPP Lab tech) liquid handling robot was used to add compounds to protein solution. Typical final concentration of the compounds was 10 μM. The plates were placed on a shaker for 1 min at RT, sealed and incubated at room temperature for specified time period. 5 μl of reaction mix was added to 10 μl of 0.2% formic acid stop solution and mixed well. Typical end points were 30, 120, 600 and 1440 min.
Data were collected using Waters Acquity H-class UPLC system/Xevo G2-XS TOF mass spectrometer. The protein was injected in their liquid phase onto a Bruker Microtrap protein column TR1/15109/03. The following buffers were used to set LC gradient: Buffer A: 0.2% formic acid H20; B: 0.2% formic acid CAN. The protein was eluted from the column using the following LC Gradient: 0-0.4 min, 10% B to 30% B; 0.4 min-2.4 min, to 90% B, 2.5 min, 10% B, 3 min, 10% B. Initial data analysis was performed using MaxEnt software right after data acquisition.
The standard auto processing function was used to define percentage of unmodified and modified kRas protein using MexEnt software right after data acquisition. The highest peak was defined as 100% while smaller peak as assigned the number defined by autoprocessing function. The percent of modification corresponding to modified with exemplary compound and unmodified KRas GDP-loaded kRas (1-169) G12C, C51S, C80L, C118S were exported to Xcel data analysis software.
The percent of modified protein at the defined concentration of exemplary compound was calculated using the following formula: % mod=Num of modified peak/Sum of modified+unmodified.

[3] = target: T3, KRAS G12C in MiaPaCa2 cells (Homo sapiens, UniProt P01116, G12C); experiment: MiaPaCa2 Cell Activity Assay (Raf-1 RBD capture of active Ras, MSD); assay type: cell-based; conditions: MIAPaCa-2 cells, 6 hours treatment; assay limit is 30.0 μM
T3 construct: endogenous in cells; host or cells: MiaPaCa2
Experimental: MiaPaCa2 Cell Activity Assay
as §1, §2
as §3, with “MiaPaCa2” for “H358”, “DMEM” for “RPMI 1640”, “11995)” for “11875)”
as §4, §5

| % Modification (0.5 h) [2] [%] | IC50 [3] [µM] | Structure (SMILES) | IC50 [1] [µM] |
| --- | --- | --- | --- |
| 66 | 0.26 | C=CC(=O)N1CCN(c2nc(OCCN(C)C)nc3c2C[C@@H](C)[C@H](c2c(C)ccc4[nH]ncc24)C3)CC1 [Example C6, 1-{4-[(6R,7R)-2-[2-(dimethylamino)ethoxy]-6-methyl-7-(5-methyl-1H-indazol-4-yl)-5,6,7,8-tetrahydroquinazolin-4-yl]piperazin-1-yl}prop-2-en-1-one] | 0.521 |
| 19 | 9.84 | C=CC(=O)N1CCN(c2nc(OCCOC)nc3c2CCC(c2c(C)ccc4[nH]ncc24)C3)CC1 (stereo not drawn) [Example C1, 1-{4-[2-(2-methoxyethoxy)-7-(5-methyl-1H-indazol-4-yl)-5,6,7,8-tetrahydroquinazolin-4-yl]piperazin-1-yl}prop-2-en-1-one] |  |
| 73 | 1.11 | C=CC(=O)N1CCN(c2ncnc3c2CC[C@H](c2cc(O)cc4ccccc24)C3)CC1 (single isomer, unassigned) [Example G3] |  |
| 14 | 7.86 | C=CC(=O)N1CCN(c2ncnc3c2CCC(c2c(C)ccc4[nH]ncc24)C3)CC1 (stereo not drawn) [Example A1, 1-{4-[7-(5-methyl-1H-indazol-4-yl)-5,6,7,8-tetrahydroquinazolin-4-yl]piperazin-1-yl}prop-2-en-1-one] |  |
| 32 | 1 | C=CC(=O)N1CCN(c2nc(N3CC(CN(C)C)C3)nc3c2C[C@@H](C)[C@H](c2c(C)ccc4[nH]ncc24)C3)CC1 (relative stereo) [Example F9] |  |
| 54 | 0.462 | C=CC(=O)N1CCN(c2ncnc3c2C[C@@H](C)[C@H](c2c(Cl)c(C)cc4[nH]ncc24)C3)CC1 (relative stereo) [Example A8, 1-{4-[(6R,7R)-rel-7-(5-chloro-6-methyl-1H-indazol-4-yl)-6-methyl-5,6,7,8-tetrahydroquinazolin-4-yl]piperazin-1-yl}prop-2-en-1-one] |  |
| 77 | 0.155 | C=CC(=O)N1CCN(c2ncnc3c2C[C@@H](C)[C@H](c2c(C)c(Cl)cc4[nH]ncc24)C3)CC1 (relative stereo) [Example A9, 1-{4-[(6R,7R)-rel-7-(6-chloro-5-methyl-1H-indazol-4-yl)-6-methyl-5,6,7,8-tetrahydroquinazolin-4-yl]piperazin-1-yl}prop-2-en-1-one] |  |
| 11 | 29.3 | C=CC(=O)N1CCN(c2ncnc3c2C[C@@H](CO)[C@H](c2c(C)ccc4[nH]ncc24)C3)CC1 (relative stereo) [Example A7, 1-{4-[(6R,7R)-rel-6-(hydroxymethyl)-7-(5-methyl-1H-indazol-4-yl)-5,6,7,8-tetrahydroquinazolin-4-yl]piperazin-1-yl}prop-2-en-1-one] |  |
| 34 | 3.61 | C=CC(=O)N1CCN(c2nc(OCCCO)nc3c2CCC(c2c(C)ccc4[nH]ncc24)C3)CC1 (stereo not drawn) [Example C4, 1-{4-[2-(3-hydroxpropoxy)-7-(5-methyl-1H-indazol-4-yl)-5,6,7,8-tetrahydroquinazolin-4-yl]piperazin-1-yl}prop-2-en-1-one] |  |

| Structure (SMILES) | % Modification (0.5 h) [2] [%] | IC50 [3] [µM] | IC50 [1] [µM] |
| --- | --- | --- | --- |
| C=CC(=O)N1CCN(c2nc(OCCCN(C)C)nc3c2C[C@@H](C)[C@H](c2c(C)ccc4[nH]ncc24)C3)CC1 [Example C5, 1-{4-[(6R,7R)-2-[3-(dimethylamino)propoxy]-6-methyl-7-(5-methyl-1H-indazol-4-yl)-5,6,7,8-tetrahydroquinazolin-4-yl]piperazin-1-yl}prop-2-en-1-one] | 74 | 0.214 | 0.468 |
| C=CC(=O)N1CCN(c2nc(N3CC(N(C)C)C3)nc3c2C[C@@H](C)[C@H](c2c(Cl)ccc4[nH]ncc24)C3)CC1 (single isomer, unassigned) [Example F10] |  | 0.169 | 0.395 |
